For 28 compounds, IC50 results are on record in patent US9573887B2, “Naphthalene derivative” (Daito Chemix Corporation, priority 2010, dated 2017).

Structures can show the parent of a compound that is named as a salt.

In this assay the target is T1, Mouse VCP (Mus musculus, UniProt Q01853).
T1 construct: histidine tag (N); made in house; host or cells: Sf-9 insect cells (baculovirus vector pVL1392)
T1 sequence (Q01853 whole entry): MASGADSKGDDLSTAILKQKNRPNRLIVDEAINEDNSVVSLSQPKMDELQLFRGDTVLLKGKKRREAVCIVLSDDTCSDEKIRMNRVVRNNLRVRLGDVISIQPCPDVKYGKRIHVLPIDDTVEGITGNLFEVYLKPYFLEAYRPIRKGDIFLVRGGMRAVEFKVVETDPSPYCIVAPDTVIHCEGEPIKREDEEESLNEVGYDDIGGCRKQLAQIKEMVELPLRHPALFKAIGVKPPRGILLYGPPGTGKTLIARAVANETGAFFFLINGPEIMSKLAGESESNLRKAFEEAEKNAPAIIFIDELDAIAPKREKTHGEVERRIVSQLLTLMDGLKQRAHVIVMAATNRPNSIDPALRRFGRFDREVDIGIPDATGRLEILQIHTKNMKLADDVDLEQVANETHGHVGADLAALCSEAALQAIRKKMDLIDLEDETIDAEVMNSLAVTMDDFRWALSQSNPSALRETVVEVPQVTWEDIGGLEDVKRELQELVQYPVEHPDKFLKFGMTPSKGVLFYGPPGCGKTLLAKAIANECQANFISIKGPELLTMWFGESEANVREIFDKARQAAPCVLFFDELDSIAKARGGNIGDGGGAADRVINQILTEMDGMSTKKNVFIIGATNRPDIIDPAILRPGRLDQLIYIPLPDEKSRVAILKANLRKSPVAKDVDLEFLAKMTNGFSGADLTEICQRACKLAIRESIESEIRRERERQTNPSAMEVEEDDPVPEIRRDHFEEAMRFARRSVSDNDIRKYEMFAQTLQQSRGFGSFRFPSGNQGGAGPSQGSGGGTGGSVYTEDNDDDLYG
The assay is described as follows: ATPase activity of purified His-tagged VCP, [γ-32P]ATP, liberated phosphate by liquid scintillation. Type of assay: biochemical. The note with it: compounds of Examples; ATPase inhibitory activity; 500 ng VCP, 100 μM ATP, 37° C., 10 minutes. A digest of the protocol: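 N-terminally His-tagged mouse VCP, expressed in Sf-9 cells and nickel-purified, was incubated (500 ng) with 100 μM [γ-32P]ATP and test substance at various concentrations in pH 7.4 HEPES/KCl/MgCl2/DTT buffer, 37° C, 10 min. After TCA stop, released phosphate was molybdate-extracted into organic phase and scintillation-counted. IC50 fitted from concentration-response.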
For orientation: IC50 means the concentration that inhibits the measured activity by half. Consider `Nc1c(/N=N/c2ccc(OCc3ccccn3)cc2)cc(S(=O)(=O)O)c2ccccc12` [Example 136, 4-amino-3-[4-(pyridine-2-ylmethoxy)phenylazo]naphthalene-1-sulfonic acid sodium salt], for which the IC50 was found to be 0.601 µM.
The result for `Nc1c(/N=N/c2cccc(Br)c2)cc(S(=O)(=O)O)c2ccccc12` [Example 109, 4-amino-3-(3-bromophenylazo)naphthalene-1-sulfonic acid sodium salt] reads 0.856 µM; that for `COCCOc1ccc(/N=N/c2cc(S(=O)(=O)O)c3ccccc3c2N)cn1` [Example 6, 4-amino-3-[6-(2-methoxyethoxy)pyridine-3-ylazo]naphthalene-1-sulfonic acid sodium salt], 0.518 µM.
For the compound `Nc1c(/N=N/c2cnc(-c3ccccc3)c(-c3ccccc3)c2)cc(S(=O)(=O)O)c2ccccc12` [Example 89, 4-amino-3-(5,6-diphenylpyridine-3-ylazo)naphthalene-1-sulfonic acid sodium salt], the IC50 is 0.501 µM.
The result for `Nc1c(/N=N/c2ccc(-c3cccc(-c4ccccc4)c3)nc2)cc(S(=O)(=O)O)c2ccccc12` [Example 42, 4-amino-3-(6-biphenyl-3-ylpyridine-3-ylazo)naphthalene-1-sulfonic acid sodium salt] reads 0.769 µM; that for `Nc1c(/N=N/c2ccc(OCc3cccnc3)cc2)cc(S(=O)(=O)O)c2ccccc12` [Example 135, 4-amino-3-[4-(pyridine-3-ylmethoxy)phenylazo]naphthalene-1-sulfonic acid sodium salt], 0.716 µM.
Regarding `Nc1c(/N=N/c2ccccc2F)cc(S(=O)(=O)O)c2ccccc12` [Example 94, 4-amino-3-(2-fluorophenylazo)naphthalene-1-sulfonic acid sodium salt], the half-inhibitory concentration (IC50) came to 1.11 µM.
Consider `Nc1c(/N=N/c2ccc(-c3cccc4cccnc34)nc2)cc(S(=O)(=O)O)c2ccccc12` [Example 83, 4-amino-3-(6-quinoline-8-ylpyridine-3-ylazo)naphthalene-1-sulfonic acid sodium salt], for which the 50% inhibitory concentration (IC50) is 0.35 µM.
Turning to `CCCOc1cc(F)ccc1-c1ccc(/N=N/c2cc(S(=O)(=O)O)c3ccccc3c2N)cn1` [Example 57, 4-amino-3-[6-(4-fluoro-2-propoxyphenyl)pyridine-3-ylazo]naphthalene-1-sulfonic acid sodium salt], the half-inhibitory concentration (IC50) was determined as 1.39 µM.
As for `Nc1c(/N=N/c2cccc([N+](=O)[O-])c2)cc(S(=O)(=O)O)c2ccccc12` [Example 96, 4-amino-3-(3-nitrophenylazo)naphthalene-1-sulfonic acid sodium salt], the IC50 is 1.63 µM.
For the compound `Nc1c(/N=N/c2ccc(-c3ccccc3C(F)(F)F)nc2)cc(S(=O)(=O)O)c2ccccc12` [Example 20, 4-amino-3-[6-(2-trifluoromethylphenyl)pyridine-3-ylazo]naphthalene-1-sulfonic acid sodium salt], the concentration for half-maximal inhibition (IC50) worked out at 0.17 µM.
For the compound `Cc1cc(C)cc(-c2ccc(C)cc2-c2ccc(/N=N/c3cc(S(=O)(=O)O)c4ccccc4c3N)cn2)c1` [Example 74, 4-amino-3-[6-(4,3′,5′-trimethylbiphenyl-2-yl)pyridine-3-ylazo]naphthalene-1-sulfonic acid sodium salt], the concentration for half-maximal inhibition (IC50) worked out at 4 µM.
As for `Cc1ccc(-c2ccccc2)c(-c2ccc(/N=N/c3cc(S(=O)(=O)O)c4ccccc4c3N)cn2)c1` [Example 71, 4-amino-3-[6-(4-methylbiphenyl-2-yl)pyridine-3-ylazo]naphthalene-1-sulfonic acid sodium salt], the half-maximal inhibitory concentration (IC50) turned out to be 0.257 µM.
Take `Nc1c(/N=N/c2ccc(Cl)c(Cl)c2)cc(S(=O)(=O)O)c2ccccc12` [Example 112, 4-amino-3-(3,4-dichlorophenylazo)naphthalene-1-sulfonic acid sodium salt]: the IC50 turned out to be 0.526 µM.
`Nc1c(/N=N/c2ccc(-c3cccc(C(F)(F)F)c3)nc2)cc(S(=O)(=O)O)c2ccccc12` [Example 37, 4-amino-3-[6-(3-trifluoromethylphenyl)pyridine-3-ylazo]naphthalene-1-sulfonic acid sodium salt]: the half-maximal inhibitory concentration (IC50) was found to be 0.726 µM.
In the case of `N#Cc1ccc(-c2ccc(/N=N/c3cc(S(=O)(=O)O)c4ccccc4c3N)cn2)cc1` [Example 45, 4-amino-3-[6-(4-cyanophenyl)pyridine-3-ylazo]naphthalene-1-sulfonic acid sodium salt], the IC50 was 0.524 µM.
Turning to `Nc1c(/N=N/c2ccc(-c3ccccc3O)nc2)cc(S(=O)(=O)O)c2ccccc12` [Example 63, 4-amino-3-[6-(2-hydroxyphenyl)pyridine-3-ylazo]naphthalene-1-sulfonic acid sodium salt], the half-inhibitory concentration (IC50) is 0.807 µM.
Regarding `Nc1c(/N=N/c2ccc(-c3ccsc3)nc2)cc(S(=O)(=O)O)c2ccccc12` [Example 18, 4-amino-3-(6-thiophene-3-ylpyridine-3-ylazo)naphthalene-1-sulfonic acid sodium salt], the half-maximal inhibitory concentration (IC50) was found to be 0.163 µM.
As to `Nc1c(/N=N/c2ccc(C(F)(F)F)cc2)cc(S(=O)(=O)O)c2ccccc12` [Example 95, 4-amino-3-(4-trifluoromethylphenylazo)naphthalene-1-sulfonic acid sodium salt], the IC50 is 0.393 µM.
As for `Cc1ccc(-c2ccc(/N=N/c3cc(S(=O)(=O)O)c4ccccc4c3N)cn2)cc1` [Example 8, 4-amino-3-(6-p-tolylpyridine-3-ylazo)naphthalene-1-sulfonic acid sodium salt], the half-maximal inhibitory concentration (IC50) is 0.43 µM.
Consider `Nc1c(/N=N/c2ccc(OCc3ccncc3)cc2)cc(S(=O)(=O)O)c2ccccc12` [Example 132, 4-amino-3-[4-(pyridine-4-ylmethoxy)phenylazo]naphthalene-1-sulfonic acid sodium salt], for which the IC50 worked out at 0.135 µM.
Consider `N#Cc1cc(Cl)ccc1/N=N/c1cc(S(=O)(=O)O)c2ccccc2c1N` [Example 118, 4-amino-3-(4-chloro-2-cyanophenylazo)naphthalene-1-sulfonic acid sodium salt], for which the IC50 turned out to be 0.105 µM.
Turning to `Nc1c(/N=N/c2ccc(-c3c(OCCCO)ccc4c3sc3ccccc34)nc2)cc(S(=O)(=O)O)c2ccccc12` [Example 82, 4-amino-3-{6-[3-(3-hydroxypropoxy)dibenzothiophene-4-yl]pyridine-3-ylazo}naphthalene-1-sulfonic acid sodium salt], the IC50 stood at 0.289 µM.
The result for `CCCOc1ccc(F)cc1-c1ccc(/N=N/c2cc(S(=O)(=O)O)c3ccccc3c2N)cn1` [Example 55, 4-amino-3-[6-(5-fluoro-2-propoxyphenyl)pyridine-3-ylazo]naphthalene-1-sulfonic acid sodium salt] reads 0.139 µM; that for `Nc1c(/N=N/c2cccc(OCc3ccccn3)c2)cc(S(=O)(=O)O)c2ccccc12` [Example 137, 4-amino-3-[3-(pyridine-2-ylmethoxy)phenylazo]naphthalene-1-sulfonic acid sodium salt], 0.61 µM; that for `Nc1c(/N=N/c2ccc(OCC(F)(F)F)nc2)cc(S(=O)(=O)O)c2ccccc12` [Example 5, 4-amino-3-[6-(2,2,2-trifluoroethoxy)pyridine-3-ylazo]naphthalene-1-sulfonic acid sodium salt], 0.495 µM.
Under `Nc1c(/N=N/c2ccc(Br)cc2Br)cc(S(=O)(=O)O)c2ccccc12` [Example 113, 4-amino-3-(2,4-dibromophenylazo)naphthalene-1-sulfonic acid sodium salt] stands 0.266 µM.
Under `N#Cc1ccccc1/N=N/c1cc(S(=O)(=O)O)c2ccccc2c1N` [Example 105, 4-amino-3-(2-cyanophenylazo)naphthalene-1-sulfonic acid sodium salt] stands 0.238 µM.
